Molecular target: T1, KCNQ2/3 ion channel (KCNQ2/3-expressing CHO-K1 cells) (Homo sapiens, UniProt O43525+O43526)
T1 construct: expressed in transfected cells; host or cells: CHO-K1
Assay: Fluorescence assay (FLIPR instrument, membrane potential dye) for substances acting agonistically on the KCNQ2/3 ion channel
Format: cell-based
Details: difference between maximum and minimum values, agonistic action detected from a value of −40 (and below)
Protocol: Pharmacological Test Methods I. Fluorescence Assay (FLIPR™ Instrument) for the Identification of Substances Acting Agonistically on the KCNQ2/3 Ion Channel
On the day before the experiment, KCNQ2/3-expressing CHO-K1 cells and CHO-K1 empty strain cells were seeded out onto coated poly-D-lysine black/clear plates (Falcon/BD Company; Order No.: 356640) in a concentration of 20000 cells/100 μl MEM alpha, 50 ml FCS, 5.5 ml PIS/G/solution (100×) and then incubated for 20-24 hours in an incubator (37° C., 5% CO2). On the day of the experiment the HBSS/hepes working solution and the FMP/HBSS/hepes mixture (Membrane Potential Assay Kit Red (FMP), bulk format Cat. No. R8123) were initially prepared according to the following protocol:
• 1000 ml 1× HBSS buffer (Hank's Balanced Salt Solution (1×) (Gibco; No. 14025)+10 ml hepes (1M stock solution, pH 7.4; hepes Na salt (Sigma Company; No. H7006-500 g; storage at 4° C. in a refrigerator) 2. 1× FMP/HBSS/hepes working solution: • 6 ml HBSS/hepes buffer are added to 5 ml of the FMP solution stored at −20° C. (preparation see below; thawing out at room temperature). The test substances (2 mM batch solution in 100% DMSO) contained in drug plates (Costar 96-well plates, catalogue No. 3795) were then diluted by adding HBSS/hepes buffer to a concentration of 30 μM (3× concentrated). The assay plates on which the cells grow were washed once with 200 μl HBSS/hepes (Cellwash Washer, Labsystems Company, catalogue No. 5161550) and the remaining volume was removed by tapping out the inverted plate twice. 100 μl of the FMP/HBSS/hepes working solution were then added in each case to the cell plates and incubated for 1 hour in the CO2 incubator at 37° C. and 5% CO2. The measurements are then carried out with a FLIPR III instrument from the Molecular Devices company (96-format, using the 540-590 nm band-pass filter in the #2 localization). In the experimental setup of the FLIPR software, filter #2 should be selected. The cell plates and the substance plates were fed alternately into the input stack. A signal test was carried out in each case with the cell plates before adding the substance. The test substances were then added via the pipetting unit of the FLIPR (added volume 50 μl, 3× concentrated, end concentration 10 μM) to the cavities of the cell plates in a total volume of 150 μl/well. The threshold data of the FLIPR program were as follows:
The pipette tips were washed after each pipetting procedure 3 times with 1% DMSO in water. The times of the measurement intervals after addition of the test substances are as follows:
Total measurement time: 6 min/plate
The test samples were evaluated by calculating the difference between the maximum and minimum values. EC50/IC50 values are calculated using the Graph Pad Prism software.
Preparation of the membrane potential loading buffer (membrane potential assay kit red (FMP), bulk format cat. No. R8123) according to the manufacturer's instructions:
10 ml of the 10× assay buffer (component B) were diluted with 90 ml of sterile water and then adjusted to pH 7.4 with 1.0N NaOH (1× assay buffer). One vessel with the FLIPR membrane potential assay component A was completely dissolved in 100 ml 1× assay buffer and thoroughly mixed for 10 minutes with a magnetic stirrer. 5 ml aliquots were then stored at −20° C. (storage shelf life ca. 2 weeks).
An agonistic action can be detected starting from a value of −40 (and below).

**Q.** With `Fc1cccc2c(NCc3cccc(OC(F)(F)F)c3)noc12` [Example 203, (7-fluorobenzo[d]isoxazol-3-yl)-(3-trifluoromethoxy-benzyl)-amine] as the molecule, how does the “FLIPR membrane potential fluorescence change (ΔF %, max minus min); negative values indicate KCNQ2/3 agonism” value read?
**A.** −49%

**Q.** With `Cc1ccc(NC(=S)Nc2noc3c(F)cccc23)cc1` [Example 124, 1-(7-fluorobenzo[d]isoxazol-3-yl)-3-p-tolyl-thiourea] as the molecule, how does the “FLIPR membrane potential fluorescence change (ΔF %, max minus min); negative values indicate KCNQ2/3 agonism” value read?
**A.** −50%

**Q.** For `S=C(NCc1ccccc1)Nc1noc2cccc(Cl)c12` [Example 52, 1-benzyl-3-(4-chloro-benzo[d]isoxazol-3-yl)-thiourea], which “FLIPR membrane potential fluorescence change (ΔF %, max minus min); negative values indicate KCNQ2/3 agonism” value is on record?
**A.** −67.5%

**Q.** `COc1ccc(NC(=S)Nc2noc3cc(Cl)ccc23)cc1` [Example 106, 1-(6-chlorobenzo[d]isoxazol-3-yl)-3-(4-methoxyphenyl)-thiourea] was tested. Which “FLIPR membrane potential fluorescence change (ΔF %, max minus min); negative values indicate KCNQ2/3 agonism” value did it give?
**A.** −59%

**Q.** Which “FLIPR membrane potential fluorescence change (ΔF %, max minus min); negative values indicate KCNQ2/3 agonism” value does the source give for `CN(C)c1cccc2onc(NC(=S)Nc3cccc(Cl)c3)c12` [Example 56, 1-(3-chlorophenyl)-3-(4-dimethylaminobenzo[d]isoxazol-3-yl)-thiourea] here?
**A.** −55%

**Q.** How did the “FLIPR membrane potential fluorescence change (ΔF %, max minus min); negative values indicate KCNQ2/3 agonism” value turn out when `CCOc1ccc(NC(=S)Nc2noc3ccccc23)cc1` [Example 31, 1-benzo[d]isoxazol-3-yl-3-(4-ethoxyphenyl)-thiourea] was run?
**A.** −49%

**Q.** Which “FLIPR membrane potential fluorescence change (ΔF %, max minus min); negative values indicate KCNQ2/3 agonism” value does the source give for `COC(=O)C(C)NC(=S)Nc1noc2cccc(F)c12` (stereo not drawn) [Example 50, 2-[3-(4-fluoro-benzo[d]isoxazol-3-yl)-thioureido]-propionic acid methyl ester] here?
**A.** −59.5%

**Q.** Which “FLIPR membrane potential fluorescence change (ΔF %, max minus min); negative values indicate KCNQ2/3 agonism” value does the source give for `Cc1cc(C)cc(CNc2noc3cc(F)ccc23)c1` [Example 169, (3,5-dimethylbenzyl)-(6-fluorobenzo[d]isoxazol-3-yl)-amine] here?
**A.** −63.25%

**Q.** How did the “FLIPR membrane potential fluorescence change (ΔF %, max minus min); negative values indicate KCNQ2/3 agonism” value turn out when `S=C(Nc1noc2ccccc12)NC1CCCCC1` [Example 23, 1-benzo[d]isoxazol-3-yl-3-cyclohexyl-thiourea] was run?
**A.** −40%

**Q.** Which “FLIPR membrane potential fluorescence change (ΔF %, max minus min); negative values indicate KCNQ2/3 agonism” value does the source give for `COc1cccc2onc(NC(=S)NC(C)c3ccccc3)c12` (stereo not drawn) [Example 128, 1-(4-methoxybenzo[d]isoxazol-3-yl)-3-(1-phenylethyl)-thiourea] here?
**A.** −47%

**Q.** `COC(=O)CNC(=S)Nc1noc2ccc(C)cc12` [Example 94, [3-(5-methylbenzo[d]isoxazol-3-yl)-thioureido]-acetic acid methyl ester] was tested. Which “FLIPR membrane potential fluorescence change (ΔF %, max minus min); negative values indicate KCNQ2/3 agonism” value did it give?
**A.** −47%

**Q.** `Cc1ccc(NC(=S)Nc2noc3cccc(N(C)C)c23)cc1` [Example 55, 1-(4-dimethylamino-benzo[d]-isoxazol-yl)-3-p-tolyl-thiourea] was tested. Which “FLIPR membrane potential fluorescence change (ΔF %, max minus min); negative values indicate KCNQ2/3 agonism” value did it give?
**A.** −84%

**Q.** With `CN(C)c1ccc(NC(=S)Nc2noc3cccc(OCC(F)(F)F)c23)cc1` [Example 92, 1-(4-dimethylaminophenyl)-3-[4-(2.2,2-trifluoroethoxy)-benzo[d]isoxazol-3-yl]-thiourea] as the molecule, how does the “FLIPR membrane potential fluorescence change (ΔF %, max minus min); negative values indicate KCNQ2/3 agonism” value read?
**A.** −51%

**Q.** `CN(C)c1cccc2onc(NC(=S)NCc3ccccc3)c12` [Example 64, 1-benzyl-3-(4-dimethylamino-benzo[d]isoxazol-3-yl)-thiourea] was tested. Which “FLIPR membrane potential fluorescence change (ΔF %, max minus min); negative values indicate KCNQ2/3 agonism” value did it give?
**A.** −52%

**Q.** How did the “FLIPR membrane potential fluorescence change (ΔF %, max minus min); negative values indicate KCNQ2/3 agonism” value turn out when `Cc1ccc2onc(NC(=S)Nc3ccc(C(F)(F)F)cc3)c2c1` [Example 96, 1-(5-methylbenzo[d]isoxazol-3-yl)-3-(4-trifluoromethylphenyl)-thiourea] was run?
**A.** −57%

**Q.** Which “FLIPR membrane potential fluorescence change (ΔF %, max minus min); negative values indicate KCNQ2/3 agonism” value does the source give for `Fc1c(Cl)cccc1CNc1noc2cccc(Cl)c12` [Example 200, (4-chlorobenzo[d]isoxazol-3-yl)-(3-chloro-2-fluoro-benzyl)-amine] here?
**A.** −74%

**Q.** Which “FLIPR membrane potential fluorescence change (ΔF %, max minus min); negative values indicate KCNQ2/3 agonism” value does the source give for `COc1ccc(Cl)cc1NC(=S)Nc1noc2cccc(OC)c12` [Example 132, 1-(5-chloro-2-methoxyphenyl)-3-(4-methoxybenzo[d]isoxazol-3-yl)-thiourea] here?
**A.** −45%

**Q.** For `COc1ccc(NC(=S)Nc2noc3cccc(OCC(F)(F)F)c23)cc1` [Example 84, 1-(4-methoxyphenyl)-3-[4-(2,2,2-trifluoroethoxy)-benzo[d]isoxazol-3-yl]-thiourea], which “FLIPR membrane potential fluorescence change (ΔF %, max minus min); negative values indicate KCNQ2/3 agonism” value is on record?
**A.** −40%

**Q.** With `COc1cccc(NC(=S)Nc2noc3cc(Cl)ccc23)c1` [Example 107] as the molecule, how does the “FLIPR membrane potential fluorescence change (ΔF %, max minus min); negative values indicate KCNQ2/3 agonism” value read?
**A.** −80%

**Q.** `C=CCNC(=S)Nc1noc2ccc(C)cc12` [Example 93, 1-allyl-3-(5-methylbenzo[d]isoxazol-3-yl)-thiourea] was tested. Which “FLIPR membrane potential fluorescence change (ΔF %, max minus min); negative values indicate KCNQ2/3 agonism” value did it give?
**A.** −45.5%

**Q.** How did the “FLIPR membrane potential fluorescence change (ΔF %, max minus min); negative values indicate KCNQ2/3 agonism” value turn out when `Fc1ccc2onc(NC(=S)NCC3CCCO3)c2c1` (stereo not drawn) [Example 98, 1-(5-fluorobenzo[d]isoxazol-3-yl)-3-(tetrahydrofuran-2-yl-methyl)-thiourea] was run?
**A.** −43.5%

**Q.** Which “FLIPR membrane potential fluorescence change (ΔF %, max minus min); negative values indicate KCNQ2/3 agonism” value does the source give for `C=CCNC(=S)Nc1noc2c(F)cccc12` [Example 123, 1-allyl-3-(7-fluorobenzo[d]-isoxazol-3-yl)-thiourea] here?
**A.** −55%

**Q.** With `Cc1cccc(Cl)c1NC(=S)Nc1noc2cc(F)ccc12` [Example 113, 1-(2-chloro-6-methylphenyl)-3-(6-fluorobenzo[d]isoxazol-3-yl)-thiourea] as the molecule, how does the “FLIPR membrane potential fluorescence change (ΔF %, max minus min); negative values indicate KCNQ2/3 agonism” value read?
**A.** −55%

**Q.** Which “FLIPR membrane potential fluorescence change (ΔF %, max minus min); negative values indicate KCNQ2/3 agonism” value does the source give for `CC(NC(=S)Nc1noc2cccc(Cl)c12)c1ccccc1` (stereo not drawn) [Example 53, 1-(4-chlorobenzo[d]isoxazol-3-yl)-3-(1-phenyl-ethyl)-thiourea] here?
**A.** −42.5%

**Q.** Which “FLIPR membrane potential fluorescence change (ΔF %, max minus min); negative values indicate KCNQ2/3 agonism” value does the source give for `CCCCCCCCCNC(=S)Nc1noc2cccc(OCc3ccc(C)cc3)c12` [Example 87, 1-[4-(4-methylbenzyloxy)-benzo[d]isoxazol-3-yl]-3-nonyl-thiourea] here?
**A.** −66.5%

**Q.** With `COCCCNC(=S)Nc1noc2cccc(N(C)C)c12` [Example 65, 1-(4-dimethylamino-benzo[d]isoxazol-3-yl)-3-(3-methoxypropyl)-thiourea] as the molecule, how does the “FLIPR membrane potential fluorescence change (ΔF %, max minus min); negative values indicate KCNQ2/3 agonism” value read?
**A.** −79%

**Q.** `S=C(Nc1noc2cc(Cl)ccc12)NC1CCCC1` [Example 103, 1-(6-chlorobenzo[d]isoxazol-3-yl)-3-cyclopentyl-thiourea] was tested. Which “FLIPR membrane potential fluorescence change (ΔF %, max minus min); negative values indicate KCNQ2/3 agonism” value did it give?
**A.** −58%

**Q.** `CC(C)c1cccc(C(C)C)c1NC(=S)Nc1noc2cc(F)ccc12` [Example 114, 1-(2,6-diisopropylphenyl)-3-(6-fluorobenzo[d]isoxazol-3-yl)-thiourea] was tested. Which “FLIPR membrane potential fluorescence change (ΔF %, max minus min); negative values indicate KCNQ2/3 agonism” value did it give?
**A.** −54%

**Q.** How did the “FLIPR membrane potential fluorescence change (ΔF %, max minus min); negative values indicate KCNQ2/3 agonism” value turn out when `Fc1ccc2c(NCc3ccc(SC(F)(F)F)cc3)noc2c1` [Example 172, (6-fluorobenzo[d]isoxazol-3-yl)-(4-trifluoromethyl-sulfanyl-benzyl)-amine] was run?
**A.** −68%

**Q.** `COc1ccc(NC(=S)Nc2noc3cc(Br)ccc23)cc1OC` [Example 108, 1-(6-bromobenzo[d]isoxazol-3-yl)-3-(3.4-dimethoxyphenyl)-thiourea] was tested. Which “FLIPR membrane potential fluorescence change (ΔF %, max minus min); negative values indicate KCNQ2/3 agonism” value did it give?
**A.** −53.5%

— patent US7696238B2, “Substituted benzo[d]isoxazol-3-yl amine compounds as analgesics” (Gruenenthal GmbH, priority 2005, dated 2010)
